# Measurements: patent US10155021B2, “Antimicrobial 4-oxoquinolizines” (Emergent Product Development Gaithersburg Inc., priority 2011, dated 2018)
# Tests used:
# Assay in all cases: microbe, parasite or virus in culture
# Type in all cases: cell-based
# B. anthracis = details: Bacillus anthracis, read-out: MIC B. anthracis
# F. tularensis = details: Francisella tularensis, read-out: MIC F. tularensis
# B. abortus = details: Brucella abortus, read-out: MIC B. abortus
# B. pseudomallei = details: Burkholderia pseudomallei, read-out: MIC B. pseudomallei
compound,measurement,setting,value
"Cc1c(-c2cccc(N)c2)ccn2c(=O)c(C(=O)O)cc(C3CC3)c12 [Compound 9, 8-(3-amino-phenyl)-1-cyclopropyl-9-methyl-4-oxo-quinolizine-3-carboxylic acid]",MIC,B. anthracis,0.06 µg/mL
same,MIC,F. tularensis,0.125 µg/mL
same,MIC,B. abortus,0.25 µg/mL
same,MIC,B. pseudomallei,0.5 µg/mL
